According to patent publication US20230096766A1, “AMINO ACID HAVING FUNCTIONAL GROUP CAPABLE OF INTERMOLECULAR HYDROGEN BONDING, PEPTIDE COMPOUND CONTAINING SAME AND METHOD FOR PRODUCTION THEREOF” (Chugai Seiyaku Kabushiki Kaisha, priority 2018, published 2023):
*1 amine or outer side, *2 acyl side, *3 side chain or, on linkers, in order; H or OH if unused. Where a SMILES comes first, the peptide text is derived from it. Bridges are numbered along the chain shown (N, C = ends). [ ]: non-standard residue; d: D form. The star is where a group is joined. Phe(3-OMe,4-CONHMs) = COc1cc(C[C@H](N)C(=O)O)ccc1C(=O)NS(C)(=O)=O; Phe(3-CONHMe,4-OMe) = CNC(=O)c1cc(C[C@H](N)C(=O)O)ccc1OC; NMePhe(3-Cl) = CN[C@@H](Cc1cccc(Cl)c1)C(=O)O; Tyr(3-OMe) = COc1cc(C[C@H](N)C(=O)O)ccc1O; X9 = O=C([C@@H](CN[*:1])COCCO)[*:2]; NMeF = CN[C@@H](Cc1ccccc1)C(=O)O; NMeGABA = CN(CCCC(=O)[*:2])[*:1]; NMeI = CC[C@H](C)[C@H](NC)C(=O)O; CH2CH(OH)CF3 = OC(C*)C(F)(F)F; NMeL = CN[C@@H](CC(C)C)C(=O)O; NMeV = CN[C@H](C(=O)O)C(C)C; NMeA = CN[C@@H](C)C(=O)O; Piperidide = C1CCN(*)CC1; NBuGly = CCCCNCC(=O)O; Sar = CNCC(=O)O; tBu = CC(C)(C)*

assay: in vitro; conditions: human, Caco-2, Caco-2 (cm/sec)

| Structure (SMILES) | Papp |
| --- | --- |
| CC[C@H](C)[C@@H]1NC(=O)[C@H](CC(C)C)N(C)C(=O)CCCN(C)C(=O)C[C@@H](C(=O)N2CCCCC2)NC(=O)[C@H](CC(C)C)N(C)C(=O)[C@H](CC(C)C)N(C)C(=O)[C@H]([C@@H](C)O)NC(=O)[C@H](CC(C)C)N(C)C(=O)[C@H](Cc2ccc(O)c(OC)c2)NC(=O)[C@H](CC(C)C)N(C)C(=O)[C@H](Cc2ccccc2)N(C)C1=O [Compound E03] ([NMeGABA][NMeL]I[NMeF][NMeL][Tyr(3-OMe)][NMeL]T[NMeL][NMeL]D-Piperidide; lactam N-11) | 0.18 ×10⁻⁶ cm/s |
| CNC(=O)c1cc(C[C@@H]2NC(=O)[C@H](CC(C)C)N(C)C(=O)[C@H](CC(C)C)N(C)C(=O)[C@H](CC(C)C)NC(=O)[C@H](CC(C)C)N(C)C(=O)C[C@@H](C(=O)N3CCCCC3)NC(=O)[C@H](CC(C)C)N(C)C(=O)CN(C)C(=O)[C@H]([C@@H](C)O)NC(=O)[C@H](C(C)C)N(C)C(=O)[C@H](CC(C)C)N(C)C2=O)ccc1OC [AP40] ([NMeL]L[NMeL][NMeL][Phe(3-CONHMe,4-OMe)][NMeL][NMeV]T[Sar][NMeL]D-Piperidide; lactam N-11) | 0.63 ×10⁻⁶ cm/s |
| CCCCN1CC(=O)N(C)[C@@H](CC(C)C)C(=O)N[C@@H](COC(C)(C)C)C(=O)N(C)[C@@H]([C@@H](C)CC)C(=O)N(C)[C@@H](CC(C)C)C(=O)N[C@H](C(=O)N2CCCCC2)CC(=O)N[C@H](C)C(=O)N(C)[C@@H](Cc2ccccc2)C(=O)N[C@@H](Cc2ccc(C(=O)NS(C)(=O)=O)c(OC)c2)C(=O)N(C)[C@@H](CC(C)C)C(=O)N[C@@H]([C@@H](C)O)C1=O [AP137] ([dA][NMeF][Phe(3-OMe,4-CONHMs)][NMeL]T[NBuGly][NMeL]S(tBu)[NMeI][NMeL]D-Piperidide; lactam N-11) | < 0.29 ×10⁻⁶ cm/s |
| CCCCN1CC(=O)N(C)[C@@H](CC(C)C)C(=O)N[C@H](C(=O)N2CCCCC2)CC(=O)N(C)[C@@H](CC(C)C)C(=O)NC[C@@H](COCCO)C(=O)N(C)[C@@H](CC(C)C)C(=O)N(C)[C@@H](Cc2ccccc2)C(=O)N[C@@H](CC(C)C)C(=O)N(C)[C@@H](Cc2ccccc2)C(=O)N(C)[C@@H](CC(C)C)C(=O)N[C@@H]([C@@H](C)O)C1=O [AP131] ([NMeL][X9][NMeL][NMeF]L[NMeF][NMeL]T[NBuGly][NMeL]D-Piperidide; lactam N-11) | 1.1 ×10⁻⁶ cm/s |
| CCCCN1CC(=O)N(C)[C@@H](CC(C)C)C(=O)N(C)[C@@H](CC(C)C)C(=O)N[C@@H](COC(C)(C)C)C(=O)N(C)[C@@H](CC(C)C)C(=O)N[C@H](C(=O)N2CCCCC2)CC(=O)N(C)CC(=O)N(C)[C@@H](Cc2cccc(Cl)c2)C(=O)N[C@@H](Cc2ccc(OC)c(C(=O)NC)c2)C(=O)N(C)[C@@H](CC(C)C)C(=O)N[C@@H]([C@@H](C)O)C1=O [AP41] ([Sar][NMePhe(3-Cl)][Phe(3-CONHMe,4-OMe)][NMeL]T[NBuGly][NMeL][NMeL]S(tBu)[NMeL]D-Piperidide; lactam N-11) | 0.45 ×10⁻⁶ cm/s |

same assay, conditions: human, Caco-2, Caco-2 (cm/sec) Papp

| Structure (SMILES) | Papp |
| --- | --- |
| CC(C)C[C@@H]1NC(=O)[C@H](Cc2ccccc2)N(C)C(=O)C[C@@H](C(=O)N2CCCCC2)NC(=O)[C@H](CC(C)C)N(C)C(=O)CN(C)C(=O)[C@H]([C@@H](C)O)NC(=O)[C@H](Cc2ccccc2)N(C)C(=O)[C@H](Cc2ccccc2)N(C)C(=O)[C@H](CC(C)C)NC(=O)[C@H](Cc2ccccc2)N(C)C(=O)[C@H](CC(C)C)N(C)C1=O [pd227] ([NMeF]L[NMeL][NMeF]L[NMeF][NMeF]T[Sar][NMeL]D-Piperidide; lactam N-11) | 0.61 ×10⁻⁶ cm/s |
| CC(C)C[C@@H]1NC(=O)[C@H](Cc2ccccc2)N(C)C(=O)[C@H](COC(C)(C)C)NC(=O)[C@H](Cc2ccccc2)N(C)C(=O)[C@H](Cc2ccccc2)N(C)C(=O)[C@H](CC(C)C)N(C)C(=O)[C@@H](CC(C)C)NC(=O)C[C@@H](C(=O)N2CCCCC2)NC(=O)[C@H](Cc2ccccc2)N(C)C(=O)[C@H]([C@@H](C)O)NC(=O)[C@H](CC(C)C)N(C)C1=O [pd243] ([dL][NMeL][NMeF][NMeF]S(tBu)[NMeF]L[NMeL]T[NMeF]D-Piperidide; lactam N-11) | 0.057 ×10⁻⁶ cm/s |
| CC[C@H](C)[C@@H]1NC(=O)[C@H](Cc2ccccc2)N(C)C(=O)[C@H]([C@@H](C)O)NC(=O)[C@@H](C)NC(=O)C[C@@H](C(=O)N(C)[C@@H](Cc2ccccc2)C(=O)N(C)[C@@H](Cc2ccccc2)C(=O)N[C@@H](C)C(=O)N2CCCCC2)NC(=O)[C@H](CC(C)C)N(C)C(=O)[C@H](CC(C)C)N(C)C(=O)[C@H](Cc2ccccc2)N(C)C(=O)[C@H](CC(C)C)N(C)C(=O)[C@H](C)N(C)C1=O [pd242] ([dA]T[NMeF]I[NMeA][NMeL][NMeF][NMeL][NMeL]D[NMeF][NMeF]A-Piperidide; lactam N-10) | 0.058 ×10⁻⁶ cm/s |

same assay, conditions: human, Caco-2, Caco-2 (membrane permeability)

| Structure (SMILES) | Papp |
| --- | --- |
| CCCCN1CC(=O)N(C)[C@@H](CC(C)C)C(=O)N[C@@H](COCC(O)C(F)(F)F)C(=O)N(C)[C@@H](Cc2ccccc2)C(=O)N(C)[C@@H](C(C)C)C(=O)N[C@H](C(=O)N2CCCCC2)CC(=O)N[C@H](C(C)C)C(=O)N(C)[C@@H](Cc2ccccc2)C(=O)N[C@@H](CC(C)C)C(=O)N(C)[C@@H](CC(C)C)C(=O)N[C@@H]([C@@H](C)O)C1=O (stereo partly drawn) [Compound C09] ([dV][NMeF]L[NMeL]T[NBuGly][NMeL]S(CH2CH(OH)CF3)[NMeF][NMeV]D-Piperidide; lactam N-11) | 0.12 ×10⁻⁶ cm/s |
